Experimental data as given in patent publication US6156700A, “3-(1,2-Benzisothiazol- and isoxazol-5-yl)-2,4(1H,3H)-pyrimidinedione or thione and 3-(1,2-benzisothiazol- and isoxazol-5-yl)-4(3H)-pyrimidinone or thione herbicidal agents” (American Cyanmid Company, priority 1998, dated 2000).
“And” between values parts separate entries of the source, which are not always exact repeats. Equal entries are not always repeated.

Legend:
IPOSS [1] = experiment: Postemergence herbicidal evaluation; assay type: in vivo
CHEAL [2] = experiment: Postemergence herbicidal evaluation; assay type: in vivo
CASOB [3] = experiment: Postemergence herbicidal evaluation; assay type: in vivo
AMBEL [4] = experiment: Postemergence herbicidal evaluation; assay type: in vivo
ORYSAT = experiment: Preemergence herbicidal evaluation; assay type: in vivo, Oryza sativa; parameters: scale not given here
GLXMA = experiment: Preemergence herbicidal evaluation; assay type: in vivo
Experimental: The preemergence and postemergence herbicidal properties of certain compounds of the present invention are compared with certain compounds disclosed in U.S. Pat. Nos. 5,484,763 and 5,523,278. The evaluations are performed as described in Examples 185 and 186. Data in Tables V and VI are reported by the compound number given in Example 185 for the compounds of this invention or by comparative compound letter for the compounds disclosed in U.S. Pat. Nos. 5,484,763 and 5,523,278.

AMBEL [5] = experiment: Preemergence herbicidal evaluation; assay type: in vivo; parameters: scale not given here
CASOB [6] = experiment: Preemergence herbicidal evaluation; assay type: in vivo; parameters: scale not given here
IPOSS [7] = experiment: Preemergence herbicidal evaluation; assay type: in vivo; parameters: scale not given here
CHEAL [8] = experiment: Preemergence herbicidal evaluation; assay type: in vivo; parameters: scale not given here
SETVI = experiment: Preemergence herbicidal evaluation; assay type: in vivo; parameters: scale not given here
GLXMAW = experiment: Preemergence herbicidal evaluation; assay type: in vivo; parameters: scale not given here
GALAP = experiment: Preemergence herbicidal evaluation; assay type: in vivo; parameters: scale not given here
ABUTH = experiment: Preemergence herbicidal evaluation; assay type: in vivo; parameters: scale not given here

Q: How did the herbicidal effect rating (IPOSS [1]; 0.0157-0.0160 kg/ha) turn out when `O=C1C2=C(CCCC2)C(=O)N1c1ccc2snc(-c3ccccc3)c2c1` [A] was run?
A: 5.5 and 5.0

Q: And the herbicidal effect rating (IPOSS [1]; 0.0313-0.0320 kg/ha)?
A: 9.0 and 6.8

Q: And the herbicidal effect rating (IPOSS [1]; 0.0625-0.0640 kg/ha)?
A: 7.5

Q: What about the herbicidal effect rating (IPOSS [1]; 0.1250 kg/ha) of the same molecule?
A: 8.4

Q: What about the herbicidal effect rating (IPOSS [1]; 0.2500 kg/ha) of the same molecule?
A: 9.0

Q: And the herbicidal effect rating (IPOSS [1]; 0.5000 kg/ha)?
A: 9.0

Q: And the herbicidal effect rating (CHEAL [2]; 0.0157-0.0160 kg/ha)?
A: 9.0 and 5.8

Q: What about the herbicidal effect rating (CHEAL [2]; 0.0313-0.0320 kg/ha) of the same molecule?
A: 9.0 and 6.3

Q: What about the herbicidal effect rating (CHEAL [2]; 0.0625-0.0640 kg/ha) of the same molecule?
A: 7.1

Q: And the herbicidal effect rating (CHEAL [2]; 0.1250 kg/ha)?
A: 7.9

Q: What about the herbicidal effect rating (CHEAL [2]; 0.2500 kg/ha) of the same molecule?
A: 9.0

Q: And the herbicidal effect rating (CHEAL [2]; 0.5000 kg/ha)?
A: 9.0

Q: What about the herbicidal effect rating (CASOB [3]; 0.0625-0.0640 kg/ha) of the same molecule?
A: 7.9

Q: What about the herbicidal effect rating (CASOB [3]; 0.1250 kg/ha) of the same molecule?
A: 8.9

Q: What about the herbicidal effect rating (CASOB [3]; 0.2500 kg/ha) of the same molecule?
A: 9.0

Q: And the herbicidal effect rating (CASOB [3]; 0.5000 kg/ha)?
A: 9.0

Q: What about the herbicidal effect rating (AMBEL [4]; 0.0157-0.0160 kg/ha) of the same molecule?
A: 7.0 and 6.0

Q: What about the herbicidal effect rating (AMBEL [4]; 0.0313-0.0320 kg/ha) of the same molecule?
A: 9.0 and 5.6

Q: And the herbicidal effect rating (AMBEL [4]; 0.0625-0.0640 kg/ha)?
A: 6.9

Q: And the herbicidal effect rating (AMBEL [4]; 0.1250 kg/ha)?
A: 7.0

Q: What about the herbicidal effect rating (AMBEL [4]; 0.2500 kg/ha) of the same molecule?
A: 9.0

Q: What about the herbicidal effect rating (AMBEL [4]; 0.5000 kg/ha) of the same molecule?
A: 9.0

Q: And the herbicidal effect rating (ORYSAT; 0.0156-0.0160 kg/ha)?
A: 0.0

Q: What about the herbicidal effect rating (ORYSAT; 0.0620-0.0630 kg/ha) of the same molecule?
A: 0.5

Q: What about the herbicidal effect rating (ORYSAT; 0.1250 kg/ha) of the same molecule?
A: 0.5

Q: What about the herbicidal effect rating (ORYSAT; 0.2500 kg/ha) of the same molecule?
A: 3.0

Q: What about the herbicidal effect rating (ORYSAT; 0.5000 kg/ha) of the same molecule?
A: 3.0

Q: What about the herbicidal effect rating (GLXMA; 0.0156-0.0160 kg/ha) of the same molecule?
A: 0.0

Q: And the herbicidal effect rating (GLXMA; 0.0313-0.0320 kg/ha)?
A: 0.0

Q: What about the herbicidal effect rating (AMBEL [5]; 0.0156-0.0160 kg/ha) of the same molecule?
A: 0.0

Q: What about the herbicidal effect rating (AMBEL [5]; 0.0620-0.0630 kg/ha) of the same molecule?
A: 2.0

Q: And the herbicidal effect rating (AMBEL [5]; 0.1250 kg/ha)?
A: 3.5

Q: And the herbicidal effect rating (AMBEL [5]; 0.2500 kg/ha)?
A: 6.0

Q: And the herbicidal effect rating (AMBEL [5]; 0.5000 kg/ha)?
A: 5.0

Q: And the herbicidal effect rating (CASOB [6]; 0.0156-0.0160 kg/ha)?
A: 0.0

Q: And the herbicidal effect rating (CASOB [6]; 0.0313-0.0320 kg/ha)?
A: 0.0

Q: What about the herbicidal effect rating (CASOB [6]; 0.0620-0.0630 kg/ha) of the same molecule?
A: 0.0

Q: And the herbicidal effect rating (CASOB [6]; 0.1250 kg/ha)?
A: 1.5

Q: What about the herbicidal effect rating (CASOB [6]; 0.2500 kg/ha) of the same molecule?
A: 2.0

Q: And the herbicidal effect rating (CASOB [6]; 0.5000 kg/ha)?
A: 2.0

Q: What about the herbicidal effect rating (IPOSS [7]; 0.0156-0.0160 kg/ha) of the same molecule?
A: 0.0

Q: And the herbicidal effect rating (IPOSS [7]; 0.0313-0.0320 kg/ha)?
A: 0.0

Q: And the herbicidal effect rating (IPOSS [7]; 0.0620-0.0630 kg/ha)?
A: 0.0

Q: And the herbicidal effect rating (IPOSS [7]; 0.1250 kg/ha)?
A: 0.0

Q: And the herbicidal effect rating (IPOSS [7]; 0.2500 kg/ha)?
A: 0.0

Q: And the herbicidal effect rating (IPOSS [7]; 0.5000 kg/ha)?
A: 2.0

Q: What about the herbicidal effect rating (CHEAL [8]; 0.0156-0.0160 kg/ha) of the same molecule?
A: 2.0

Q: And the herbicidal effect rating (CHEAL [8]; 0.0620-0.0630 kg/ha)?
A: 2.5

Q: What about the herbicidal effect rating (CHEAL [8]; 0.1250 kg/ha) of the same molecule?
A: 5.0

Q: What about the herbicidal effect rating (CHEAL [8]; 0.2500 kg/ha) of the same molecule?
A: 7.0

Q: What about the herbicidal effect rating (CHEAL [8]; 0.5000 kg/ha) of the same molecule?
A: 9.0

Q: And the herbicidal effect rating (SETVI; 0.0156-0.0160 kg/ha)?
A: 0.0

Q: What about the herbicidal effect rating (SETVI; 0.0313-0.0320 kg/ha) of the same molecule?
A: 0.0

Q: What about the herbicidal effect rating (SETVI; 0.0620-0.0630 kg/ha) of the same molecule?
A: 0.0

Q: And the herbicidal effect rating (SETVI; 0.1250 kg/ha)?
A: 2.5

Q: What about the herbicidal effect rating (SETVI; 0.2500 kg/ha) of the same molecule?
A: 2.0

Q: And the herbicidal effect rating (SETVI; 0.5000 kg/ha)?
A: 3.0

Q: What about the herbicidal effect rating (GLXMAW; 0.0313-0.0320 kg/ha) of the same molecule?
A: 0.0

Q: What about the herbicidal effect rating (GLXMAW; 0.0620-0.0630 kg/ha) of the same molecule?
A: 0.0

Q: What about the herbicidal effect rating (GLXMAW; 0.1250 kg/ha) of the same molecule?
A: 0.0

Q: What about the herbicidal effect rating (GLXMAW; 0.2500 kg/ha) of the same molecule?
A: 0.0

Q: And the herbicidal effect rating (GLXMAW; 0.5000 kg/ha)?
A: 0.0

Q: And the herbicidal effect rating (GALAP; 0.0313-0.0320 kg/ha)?
A: 5.5

Q: And the herbicidal effect rating (GALAP; 0.0620-0.0630 kg/ha)?
A: 4.5

Q: What about the herbicidal effect rating (GALAP; 0.1250 kg/ha) of the same molecule?
A: 7.0

Q: And the herbicidal effect rating (GALAP; 0.2500 kg/ha)?
A: 9.0

Q: And the herbicidal effect rating (GALAP; 0.5000 kg/ha)?
A: 9.0

Q: And the herbicidal effect rating (ABUTH; 0.0156-0.0160 kg/ha)?
A: 0.0

Q: What about the herbicidal effect rating (ABUTH; 0.0313-0.0320 kg/ha) of the same molecule?
A: 0.0
